From patent US11986457B2, “Nutraceutical compositions” (SpecNova LLC, priority 2021, dated 2024)

Target: Human Dopamine Transporter (DAT) (Homo sapiens, UniProt Q01959)
Test: Human Dopamine Transporter (DAT) Binding (Antagonist Radioligand) Assay
Settings: for level of inhibition in the dopamine transporter inhibitory assay: statement in words in the description
Description: Human Dopamine Transporter (DAT) Binding (Antagonist Radioligand) Assay
Nonspecific binding is determined in the presence of 10 μM BTCP. Following incubation, the samples are filtered rapidly under vacuum through glass fiber filters (GF/B, Packard) presoaked with 0.3% PEI and rinsed several times with ice-cold 50 mM Tris-HCl using a 96-sample cell harvester (Unifilter, Packard). The filters are dried then counted for radioactivity in a scintillation counter (Topcount, Packard) using a scintillation cocktail (Microscint 0, Packard). The results are expressed as a percent inhibition of the control radioligand specific binding.

Chain of Human Dopamine Transporter (DAT) (Q01959 whole entry): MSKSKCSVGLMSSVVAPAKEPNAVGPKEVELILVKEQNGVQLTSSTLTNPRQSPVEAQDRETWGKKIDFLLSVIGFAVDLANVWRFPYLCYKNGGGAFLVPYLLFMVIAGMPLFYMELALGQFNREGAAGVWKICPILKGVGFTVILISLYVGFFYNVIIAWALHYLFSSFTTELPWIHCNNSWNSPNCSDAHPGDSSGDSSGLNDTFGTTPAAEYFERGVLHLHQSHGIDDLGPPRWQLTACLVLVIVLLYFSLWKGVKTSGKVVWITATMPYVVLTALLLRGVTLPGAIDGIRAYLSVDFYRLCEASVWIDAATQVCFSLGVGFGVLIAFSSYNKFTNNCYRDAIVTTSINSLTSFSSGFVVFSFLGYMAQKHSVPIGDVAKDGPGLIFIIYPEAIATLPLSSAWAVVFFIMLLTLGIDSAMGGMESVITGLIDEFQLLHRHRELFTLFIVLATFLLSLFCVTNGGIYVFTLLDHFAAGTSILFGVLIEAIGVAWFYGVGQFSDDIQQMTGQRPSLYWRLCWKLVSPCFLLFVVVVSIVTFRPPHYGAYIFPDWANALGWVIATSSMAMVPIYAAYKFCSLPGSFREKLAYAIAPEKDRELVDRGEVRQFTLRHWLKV

level of inhibition in the dopamine transporter inhibitory assay	% of Control Specific Binding (mean of two tests) ([3H]BTCP 4 nM radioligand, mean of two tests)	SMILES
extremely high level of inhibition	4.6%	OC[C@@H](O)[C@@H](/C=C/c1ccc(O)cc1)c1ccc(O)cc1 [Agatharesinol, (2S,3S,4E)-3,5-bis(4-hydroxyphenyl)pent-4-ene-1,2-diol]
extremely high level of inhibition	–	OC[C@@H](O)[C@@H](/C=C/c1ccc(O)cc1)c1ccc(O)c(O)c1 [Sequirin C, 4-[(1S,2E)-1-[(1S)-1,2-dihydroxyethyl]-3-(4-hydroxyphenyl)prop-2-en-1-yl]benzene-1,2-diol]

SMILES	level of inhibition in the dopamine transporter inhibitory assay	% of Control Specific Binding (mean of two tests) ([3H]BTCP 4 nM radioligand, mean of two tests)
CC(C)=CCc1c(C2CCc3ccc(O)cc3O2)ccc(O)c1O (stereo in doubt) [Kazinol U, 4-[(2S)-7-hydroxy-3,4-dihydro-2H-chromen-2-yl]-3-(3-methylbut-2-enyl)benzene-1,2-diol]	high level of inhibition	–
